Assay results taken from PubChem BioAssay (NCI).
Structures can show the parent of a compound that is named as a salt.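 Five compound concentrations were applied to cells in 96-well plates for 48 hours; endpoints were derived by simple linear interpolation of the resulting dose-response curve. Here, GI50 denotes the concentration required for 50% inhibition of growth. The concentration for full growth arrest is given as TGI.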 *1 amine or outer side, *2 acyl side, *3 side chain or, on linkers, in order; H or OH if unused. Where a SMILES comes first, the peptide text is derived from it. [ ]: non-standard residue; d: D form. The star is where a group is joined. X31 = CC(=O)N(C)SCC(N[*:1])C(=O)[*:2]; X47 = CC(=O)N(C)SCC(N*)/C(O)=N\O; Cbz = O=C(OCc1ccccc1)*; Tfa = O=C(C(F)(F)F)*; Bn = c1ccc(C*)cc1; For = O=C*

Key:
Assay in all cases: NCI-60 cell line screen, 48 h
MOLT-4 leukemia = system: MOLT-4 leukemia
T-47D breast = system: T-47D breast
CCRF-CEM leukemia = system: CCRF-CEM leukemia
SK-OV-3 ovarian = system: SK-OV-3 ovarian
OVCAR-8 ovarian = system: OVCAR-8 ovarian
UO-31 renal = system: UO-31 renal
A549 NSCLC = system: A549 NSCLC
UACC-62 melanoma = system: UACC-62 melanoma
UACC-257 melanoma = system: UACC-257 melanoma
CAKI-1 renal = system: CAKI-1 renal

Structure (SMILES)	TGI (MOLT-4 leukemia) [µM]	TGI (T-47D breast) [µM]	TGI (CCRF-CEM leukemia) [µM]	TGI (SK-OV-3 ovarian) [µM]	TGI (OVCAR-8 ovarian) [µM]	TGI (UO-31 renal) [µM]	TGI (A549 NSCLC) [µM]	TGI (UACC-62 melanoma) [µM]	TGI (UACC-257 melanoma) [µM]	TGI (CAKI-1 renal) [µM]	GI50 (T-47D breast) [µM]	GI50 (CAKI-1 renal) [µM]	GI50 (SK-OV-3 ovarian) [µM]	GI50 (OVCAR-8 ovarian) [µM]	GI50 (UO-31 renal) [µM]	GI50 (A549 NSCLC) [µM]	GI50 (UACC-257 melanoma) [µM]	GI50 (MOLT-4 leukemia) [µM]	GI50 (CCRF-CEM leukemia) [µM]	GI50 (UACC-62 melanoma) [µM]
CC(=O)N(C)SCC(NC(=O)C(Cc1ccccc1)NC(=O)OCc1ccccc1)C(=O)NC(Cc1ccccc1)C(=O)NC(Cc1cn(C=O)c2ccccc12)C(=O)NC(CCCCNC(=O)OCc1ccccc1)C(=O)NC(C(=O)NC(CSN(C)C(C)=O)/C(O)=N\O)C(C)OCc1ccccc1 (configuration not stated) (Cbz-F[X31]FW(For)K(Cbz)T(Bn)-X47; configuration not given here)	> 100	> 100	> 100	> 100	> 100	> 100	> 100	> 100	> 100											
COc1ccc(/C=C2\CCC(C)C3=C(c4ccc(OC)c(OC)c4)C(C#N)=C(N)OC32)cc1OC (configuration not stated)		7.97	19.2	36.4	> 100	8.4		7.34	37	> 100										
O=C(O)CC(NC(=O)C(F)(F)F)C(=O)NC(Cc1ccc(O)cc1)C(=O)O (stereo not drawn) (Tfa-Asp-Tyr-OH; configuration not given here)	> 50	> 50		> 50	> 50	> 50	> 50	> 50	> 50	> 50										
N#CN=C(N)c1sc2nc3c(c(-c4ccc(Br)cc4)c2c1N)CCCC3	> 100		> 100	> 100	86.8	57.6	> 100	51.3	> 100	42.4										
CC1CC(C)C(O)C(C2CC(CC(=O)NC3CCCCC3)CC(=O)O2)C1 (configuration not stated)	> 100	> 100	> 100		> 100		> 100		> 100	> 100										
CC1=NCCN=C(C)C1N=Nc1ccc2nc(C)[nH]c2c1	23.6	47.5	16.8	39.2	85.1		19.6	31.5	28.6	36										
COC(=O)c1c2c(cc3c1CC1(Cc4cc5c(c(C=O)c4C1)CCCC5)C3)CCCC2 (configuration not stated)	> 100	> 100		> 100	> 100	0.268	> 100	> 100	> 100											
Cc1cc(N(CCC#N)CCC#N)ccc1/C=C1N=C(/C=C\c2ccccc2)OC\1=O	> 100		> 100	> 100	> 100	> 100	> 100	> 100	> 100	> 100										
C=C(CN(C)C)C(=O)c1ccccc1C	35.7		34.2	> 100	> 100	> 69.2	> 100	> 62.3	> 100	62.6										
Cc1ccccc1C(=O)c1c(O)c2c(c(O)c1Br)CCCC2	31.4			43.6	36	31.7	54.1	29	29.2	35.9										
O=S(=O)(O)c1c(Cl)cc(O)c2ncccc12	> 100	> 100	> 100		> 100	> 100	> 100	> 100	> 100	> 100										
COC(=O)CCc1cc(OC)c(O)c(C(Cc2ccc(OC)c(OC)c2)C(=O)OC)c1 (configuration not stated)	> 100	> 100	> 100	> 100	> 100	> 100	> 100	> 100	> 100											
COC1=C2CC(C)CC(OC)C(O)C(C)/C=C(\C)C(OC(N)=O)C(OC)/C=C\C=C(/C)C(=O)NC(=C(C=NC(C)(C)C)C1=O)C2=O (configuration not stated)	12.1		22.2	67.3	73.6	40.5	37.5	17.6	17.8	23.7										
Cc1ccc2c3c1O[C@H]1c4[nH]c5ccccc5c4C[C@@]4(O)[C@@H](C2)N(C)CC[C@]314	36.7		35		34.8	27.1	32.9	31.1	28.2	34.4										
CC[C@@]1(N(C)C)C(=O)OCc2c1cc1n(c2=O)Cc2cc3ccccc3nc2-1		52.6	96.3	51.5	31.2	77	> 100	56.6	> 100											
C/C(CC/C(C)=N/O)=N\O	> 100	> 100		> 100	> 100	> 100	> 100	> 100	> 100	> 100										
NCC(=O)NC1(c2cc3ccccc3s2)CCCCC1		> 100	59.5	> 100	> 100	> 100	> 100	44.5	32.1	> 100										
CCS(=O)(=O)N1CCC(C(C)n2c(C)c(C(=O)NCc3c(OC)cc(C)[nH]c3=O)c3ccccc32)CC1 (configuration not stated)		> 100		> 100	> 100	> 100	> 100		> 100	> 100	> 100	> 100	> 100	> 100	> 100	> 100	> 100			
O=C(Nc1cccc(-n2ccc3c(NC(=O)c4ccccc4)nccc32)c1)c1ccc(N2CCOCC2)c(C(F)(F)F)c1	> 100		> 100	2.66	> 100	37.8	> 100	22.5	> 100	14.8		0.0462	0.0326	0.055	0.0537	0.0513	2.36	0.128	0.0618	0.0414
O=C(Nc1nnc(-c2ccccc2)o1)C(SC(=S)N1CCCCC1)c1ccccc1 (configuration not stated)	> 100	> 100	14.1	> 100	> 100	26.9	49.5		> 100	77.8										
